For assay [1], the system named is NCI-H460. In words: Potency index, ratio of gefitinib IC50 to compound IC50 for human NCI-H460 cells. Format: functional.
The test system of assay [2] is NCI-H460. In words: Potency index, ratio of WZ4002 IC50 to compound IC50 for human NCI-H460 cells. Format: functional.

The structures appear in SMILES notation.

Turning to `COc1cc(N2CCN(C)CC2)ccc1Nc1ncc(Cl)c(Oc2ccccc2NC(=O)CCO)n1`, the “Ratio IC50” value in the assay with NCI-H460 [1] and in the assay on NCI-H460 [2] was 6 - 10 in each case.

`COc1cc(N2CCN(C)CC2)ccc1Nc1ncc(Cl)c(Oc2ccccc2NC(=O)CO)n1`: the “Ratio IC50” value in the assay with NCI-H460 [1] and with NCI-H460 [2] was 6 - 10 each time.

Take `COc1cc(N2CCN(C)CC2)ccc1Nc1ncc(Cl)c(Oc2ccccc2NC(=O)COCc2ccccc2)n1`: the “Ratio IC50” value in the assay with NCI-H460 [1] and in the assay with NCI-H460 [2] was 6 - 10 in each case.

Regarding `COc1cc(N2CCN(C)CC2)ccc1Nc1ncc(Cl)c(Oc2ccccc2NC(=O)CCOCc2ccccc2)n1`, the “Ratio IC50” value in the assay with NCI-H460 [1] and in the assay on NCI-H460 [2] was 6 - 10 throughout.

The values above are taken from ChEMBL document CHEMBL4177590, “Design, synthesis and biological evaluation of WZ4002 analogues as EGFR inhibitors” (Bioorg Med Chem Lett, 2017).
